Here are results for 11 molecules from patent US3996150A, “Ester compounds” (Lever Brothers Company, priority 1975, dated 1976).

Series [1] can be described thus: Terg-O-Tometer stain removal test of detergent product containing the detergent solvent, rated visually. The following applies: 4.0% detergent solvent in detergent product; 5% solution 15 min, then 20 min wash at 0.144%; 120° F, 180 ppm hardness. Details: key: 0: complete removal; 1: Very slight remaining stain; 2: Slight remaining stain; 3: Moderate stain removal; 4: Poor stain removal; 5: Very poor stain removal; 6: Equal to original stain. On the procedure: Four Dacron/cotton (65-35%) Khaki permanent press (Pants weight) test pieces (41/2 inches×6 inches) are first soiled by adding 3 drops of dirty crankcase motor oil on the center of the cloth and the stain allowed to set for one hour. The test cloths are then washed in the Terg-O-Tometerat 120° F, 180 ppm (2:1 Ca^+^+/Mg^+^+) hardness, 90 cycles per minute agitation, with a 5% solution of the detergent product described below (i.e., 50 g/liter) for 15 minutes and then hand squeezed to remove excess water. Finally the cloths are given a 20 minute wash at the standard use level (e.g. 0.144%) under the same conditions followed by a 1 minute rinse. After drying the washed cloths, the degree of stain removal is rated visually according to the scale below:
1 = Very slight remaining stain
2 = Slight remaining stain
3 = Moderate stain removal
5 = Very poor stain removal
6 = Equal to original stain
Ten such formulations utilizing the following "Detergent Solvents" were prepared and evaluated as described above: […]

Series [2] can be described thus: Cold resistance of plasticized polyvinyl chloride film. The class given is physicochemical. The following applies: PVC film 1.3 mm, 65 parts plasticizer per 100 parts S-PVC resin. On the procedure: Tri(2-ethylhexyl) carboxymethyloxysuccinate was incorporated as a plasticizer in the preparation of polyvinyl chloride film as follows
Using a mixing roller at 170° (7 min.) followed by post-pressing the film at 170° C under contact pressure for 2 minutes, a good plasticized film (1.3 mm) of polyvinyl chloride was obtained. Cold resistance was -39° C compared to -36° C for a control PVC film made using di-2-ethylhexyl phthalate (DOP) as the plasticizer.

For series [3] the following is noted: parent compound from which the esters are derived; cited from earlier work.
For series [4] the following is noted: under both aerobic and anaerobic conditions; cited from earlier work.
The conditions of series [5]: parent compound from which the esters are derived; cited from earlier work. This is another data set of the same source.

As to `CCCCOC(=O)c1ccccc1C(=O)OCCCC` [A, dibutyl phthalate, reference compound], the “Visual Grading Code (degree of stain removal)” value (shortened to “Visual Grading Code”) in series [1] is 2. Still for that read-out and setting: the value for `COC(=O)COC(CC(=O)OC)C(=O)OC` (centres unmarked) [B, trimethyl carboxymethyloxysuccinate] was 2. On the same count and under the same terms, the value for `CCOC(=O)COC(CC(=O)OCC)C(=O)OCC` (centres unmarked) [C, triethyl carboxymethyloxysuccinate] was 1; that for `CCCOC(=O)COC(CC(=O)OCCC)C(=O)OCCC` (centres unmarked) [D, tripropyl carboxymethyloxysuccinate] was 1; that for `CCCCOC(=O)COC(CC(=O)OCCCC)C(=O)OCCCC` (centres unmarked) [E, tributyl carboxymethyloxysuccinate] was 2. On the same count and under the same terms, the value for `CCCCCCOC(=O)COC(CC(=O)OCCCCCC)C(=O)OCCCCCC` (centres unmarked) [F, trihexyl carboxymethyloxysuccinate] was 1. Take `CCCCC(CC)COC(=O)COC(CC(=O)OCC(CC)CCCC)C(=O)OCC(CC)CCCC` (centres unmarked) [G, tri(2-ethylhexyl) carboxymethyloxysuccinate]: the “Visual Grading Code” value in series [1] is given as 2. Also, the Cold resistance in series [2] was -39 °C.

For `CCCCCCCCOC(=O)COC(CC(=O)OCCCCCCCC)C(=O)OCCCCCCCC` (centres unmarked) [H, trioctyl carboxymethyloxysuccinate], the “Visual Grading Code” value in series [1] is on record as 2. On the same count and under the same terms, the value for `CCCCCCCCCCCCOC(=O)COC(CC(=O)OCCCCCCCCCCCC)C(=O)OCCCCCCCCCCCC` (centres unmarked) [J, tridodecyl carboxymethyloxysuccinate] was 2. `O=C(O)COC(CC(=O)O)C(=O)O` (centres unmarked) [carboxymethyloxysuccinic acid]: the teratogenicity result in series [3] is on record as “non-teratogenic”. Further, the biodegradability result in series [4] was “completely biodegradable”. Further, the toxicity entry in series [5] is reported as “non-toxic”. `CCCCC(CC)COC(=O)c1ccccc1C(=O)OCC(CC)CCCC` (centres unmarked) [di-2-ethylhexyl phthalate, reference compound] gave a Cold resistance in series [2] of -36 °C.
